Data: US8883449B2, “Single-chain insulin” (Novo Nordisk A/S, priority 2003, dated 2014)
Like-named read-outs stand apart in the source and are kept apart here. Bridges are numbered along the chain shown (N, C = ends). Where no end group is shown, it is not given here.

Target: human insulin receptor (Homo sapiens, UniProt P06213)
Type: binding
Protocol: Alternatively the insulin receptor binding was tested in a hIRBHK membrane assay as follows: • Binding of [^125I]-human insulin to membrane-associated recombinant human insulin receptor isoform A (hIR-A) • Reagents: • ^125I-Insulin: Novo Nordisk A/S, mono ^125I-(TyrA14) human insulin • Human Insulin: Novo Nordisk A/S, • Human serum albumin: Dade Behring, ORHA 194 C30, lot 455077 • Plastic ware: Packard OptiPlate™-96, #6,005,290 • Scintillant: Amersham Biosciences, WGA coated PVT microspheres, # RPNQ0001 • Cells: BHK tk^− ts13 cells expressing recombinant human insulin receptor isoform A (hIR12-14).
Extraction of membrane-associated insulin receptors: BHK cells from a ten-layer cell factory were harvested and homogenised in 25 ml of ice-cold buffer (25 mM HEPES pH 7.4, 2.5 mM CaCl2, 1 mM MgCl2, 250 mg/l bacitracin, 0.1 mM Pefablock). The homogenate was layered carefully on 41% sucrose cushions, centrifuged in the ultracentrifuge at 95,000×g for 75 minutes in a Beckman SW28 rotor at 4° C. The plasma membranes were collected from the top of the sucrose cushion, diluted 1:4 with buffer and centrifuged at 40,000×g for 45 min in a Beckman SW28 rotor. The pellets were suspended in buffer (25 mM HEPES pH 7.4, 2.5 mM CaCl2, 1 mM MgCl2, 250 mg/l bacitracin, 0.1 mM Pefablock) and stored at −80° C.
Radioligand binding to membrane-associated insulin receptors was performed in duplicate in 96-well OptiPlates. Membrane protein was incubated for 150 minutes at 25° C. with […] [^125I-Tyr^A14]-human insulin in a total volume of […] assay buffer (50 mM HEPES, 150 mM NaCl, 5 mM MgSO4, 0.01% Triton X-100, 0.1% HSA, Complete™ EDTA-free protease inhibitors) and increasing concentrations of human insulin or insulin analogues (typically between 0.01 and 300 nM). The assay was terminated by addition of 50 μl of a suspension of WGA-coated PVT microspheres (20 mg/ml). Following 5 minutes of slight agitation, the plate was centrifuged at 1500 RPM for 6 minutes, and bound radioactivity quantified by counting in a Packard TopCount NXT after a delay of 60 minutes. […]

[1] = acylated single-chain insulins of Examples 2-4

Chain of human insulin receptor (P06213 28-746 isoform P06213-2 limits assumed): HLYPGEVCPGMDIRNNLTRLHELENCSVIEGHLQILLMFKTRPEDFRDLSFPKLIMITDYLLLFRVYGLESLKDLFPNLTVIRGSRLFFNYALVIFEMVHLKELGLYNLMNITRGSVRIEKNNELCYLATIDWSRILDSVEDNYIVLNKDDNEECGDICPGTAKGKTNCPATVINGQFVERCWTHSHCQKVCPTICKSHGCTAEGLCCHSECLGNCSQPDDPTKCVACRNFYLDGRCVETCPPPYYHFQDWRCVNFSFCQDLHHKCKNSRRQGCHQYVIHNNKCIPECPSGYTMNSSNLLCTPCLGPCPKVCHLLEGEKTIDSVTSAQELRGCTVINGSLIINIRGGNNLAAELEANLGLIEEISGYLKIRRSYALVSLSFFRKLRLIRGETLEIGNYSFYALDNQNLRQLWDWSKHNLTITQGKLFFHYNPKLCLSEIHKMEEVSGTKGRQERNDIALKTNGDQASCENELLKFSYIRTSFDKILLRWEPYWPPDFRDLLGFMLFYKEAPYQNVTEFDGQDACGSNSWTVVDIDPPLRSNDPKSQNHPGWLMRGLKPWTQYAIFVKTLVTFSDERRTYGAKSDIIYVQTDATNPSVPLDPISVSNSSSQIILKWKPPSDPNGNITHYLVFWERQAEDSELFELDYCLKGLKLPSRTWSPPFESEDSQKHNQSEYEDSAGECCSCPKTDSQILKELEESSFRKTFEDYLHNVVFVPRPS
Chain of human insulin receptor (P06213 763-1382 partner limits assumed): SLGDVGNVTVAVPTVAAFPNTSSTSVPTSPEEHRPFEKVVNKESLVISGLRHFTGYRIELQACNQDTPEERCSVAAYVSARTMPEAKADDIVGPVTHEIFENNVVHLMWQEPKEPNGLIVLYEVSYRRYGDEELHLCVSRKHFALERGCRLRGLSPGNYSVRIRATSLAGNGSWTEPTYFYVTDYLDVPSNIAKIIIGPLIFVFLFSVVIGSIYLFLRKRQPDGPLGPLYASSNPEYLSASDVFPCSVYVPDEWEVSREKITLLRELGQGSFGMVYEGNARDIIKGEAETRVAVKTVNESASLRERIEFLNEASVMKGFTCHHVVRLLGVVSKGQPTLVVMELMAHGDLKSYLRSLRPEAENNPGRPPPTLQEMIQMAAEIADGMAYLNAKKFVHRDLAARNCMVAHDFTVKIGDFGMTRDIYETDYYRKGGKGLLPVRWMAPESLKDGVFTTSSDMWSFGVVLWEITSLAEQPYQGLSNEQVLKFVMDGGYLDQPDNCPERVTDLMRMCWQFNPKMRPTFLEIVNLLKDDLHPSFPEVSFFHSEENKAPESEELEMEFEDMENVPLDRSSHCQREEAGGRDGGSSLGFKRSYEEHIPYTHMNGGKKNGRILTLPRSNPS

Molecule	IC50 relative to human insulin in %. [%]	IC50 relative to human insulin in %. [1] [%]
CCCCCCCCCCCCCC(=O)NCCCC[C@@H]1NC(=O)CNC(=O)[C@H](CC(C)C)NC(=O)CNC(=O)[C@H]([C@@H](C)O)NC(=O)[C@H](CCCNC(=N)N)NC(=O)[C@@H]2CCCN2C(=O)[C@H]([C@@H](C)O)NC(=O)[C@H](Cc2ccc(O)cc2)NC(=O)[C@H](Cc2ccccc2)NC(=O)[C@H](Cc2ccccc2)NC(=O)CNC(=O)[C@H](CCCNC(=N)N)NC(=O)[C@H](CCC(=O)O)NC(=O)CNC(=O)[C@@H]2CSSC[C@@H](C(=O)NCC(=O)O)NC(=O)[C@H](Cc3ccc(O)cc3)NC(=O)[C@H](CCC(N)=O)NC(=O)[C@H](CCC(=O)O)NC(=O)[C@H](CC(C)C)NC(=O)[C@H](CCC(N)=O)NC(=O)[C@H](Cc3ccc(O)cc3)NC(=O)[C@H](CC(C)C)NC(=O)[C@H](CO)NC(=O)[C@@H]3CSSC[C@H](NC(=O)[C@H](CCC(N)=O)NC(=O)[C@H](CCC(=O)O)NC(=O)[C@H](C(C)C)NC(=O)[C@H]([C@@H](C)CC)NC(=O)CNC(=O)[C@H](CCC(N)=O)NC(=O)CNC1=O)C(=O)N[C@@H](CSSC[C@H](NC(=O)[C@H](CC(C)C)NC(=O)[C@H](Cc1c[nH]cn1)NC(=O)[C@H](CCC(N)=O)NC(=O)[C@H](CCC(N)=O)NC(=O)[C@@H](NC(=O)[C@@H](N)Cc1ccccc1)C(C)C)C(=O)NCC(=O)N[C@@H](CO)C(=O)N[C@@H](Cc1c[nH]cn1)C(=O)N[C@@H](CC(C)C)C(=O)N[C@@H](C(C)C)C(=O)N[C@@H](CCC(=O)O)C(=O)N[C@@H](C)C(=O)N[C@@H](CC(C)C)C(=O)N[C@@H](Cc1ccc(O)cc1)C(=O)N[C@@H](CC(C)C)C(=O)N[C@@H](C(C)C)C(=O)N2)C(=O)N[C@@H]([C@@H](C)O)C(=O)N[C@@H](CO)C(=O)N[C@@H]([C@@H](C)CC)C(=O)N3 [Example 2, B(1-29)-B3Q-B29R-TGLGK((eps)myristoyl)GQ-A(1-21)-A18Q-A21G Human insulin]	2	–
B(1-29)-B3Q-B29R-TGLGK((eps)hexadecandioyl-γ-L-Glu)GQ-A(1-21)-A 8Q-A21 G Human insulin [Example 4]	–	0.7
B(1-29)-B3Q-B29R-TGLGK((eps)octadecandioyl)GQ-A(1-21)-A18Q-A21G Human insulin (FVQQHLCGSHLVEALYLVCGERGFFYTPRTGLGK(octadecandioyl)GQGIVEQCCTSICSLYQLEQYCG; disulfide 19-56, 42-47, 7-43) [Example 3]	–	0.1
